Reference: article PMC3310290 (Bioconjugate Chemistry, 2012)
One block for each molecule: values may come before it. Positions of bridges follow the written chain, without caps; N, C: chain ends. Residues, ends and D or L forms follow the SMILES beside them. *: point of attachment. 5FAM = O=C1OC2(c3ccc(O)cc3Oc3cc(O)ccc32)c2ccc(C(=O)*)cc21; DTPA = O=C(O)CN(CCN(CC(=O)O)CC(=O)O)CCN(CC(=O)O)CC(=O)*; Ahx = NCCCCCC(=O)O

How the values were obtained:
[1] = biological target: T1, fibrinogen (Homo sapiens, UniProt P02671+P02675+P02679); experiment: Fluorescence polarization, binding to fibrinogen; conditions: fluorescence anisotropy
T1 sequence (P02671 20-629 limits assumed): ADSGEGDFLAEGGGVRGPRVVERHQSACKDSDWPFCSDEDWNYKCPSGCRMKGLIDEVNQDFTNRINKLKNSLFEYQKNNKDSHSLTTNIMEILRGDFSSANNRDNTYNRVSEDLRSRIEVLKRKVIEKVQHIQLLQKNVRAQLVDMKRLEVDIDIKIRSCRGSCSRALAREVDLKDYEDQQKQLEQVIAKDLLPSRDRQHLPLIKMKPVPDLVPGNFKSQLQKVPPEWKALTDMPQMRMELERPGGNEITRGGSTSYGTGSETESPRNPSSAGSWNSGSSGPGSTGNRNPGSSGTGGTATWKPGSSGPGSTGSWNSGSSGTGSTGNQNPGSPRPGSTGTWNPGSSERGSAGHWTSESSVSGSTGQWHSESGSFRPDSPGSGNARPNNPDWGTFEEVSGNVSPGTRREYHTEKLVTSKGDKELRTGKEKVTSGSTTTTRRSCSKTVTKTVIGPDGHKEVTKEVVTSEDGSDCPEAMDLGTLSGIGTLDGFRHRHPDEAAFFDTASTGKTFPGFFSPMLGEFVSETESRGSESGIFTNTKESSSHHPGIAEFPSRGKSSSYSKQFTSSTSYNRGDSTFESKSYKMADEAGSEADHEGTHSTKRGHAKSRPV
T1 sequence (P02675 31-491): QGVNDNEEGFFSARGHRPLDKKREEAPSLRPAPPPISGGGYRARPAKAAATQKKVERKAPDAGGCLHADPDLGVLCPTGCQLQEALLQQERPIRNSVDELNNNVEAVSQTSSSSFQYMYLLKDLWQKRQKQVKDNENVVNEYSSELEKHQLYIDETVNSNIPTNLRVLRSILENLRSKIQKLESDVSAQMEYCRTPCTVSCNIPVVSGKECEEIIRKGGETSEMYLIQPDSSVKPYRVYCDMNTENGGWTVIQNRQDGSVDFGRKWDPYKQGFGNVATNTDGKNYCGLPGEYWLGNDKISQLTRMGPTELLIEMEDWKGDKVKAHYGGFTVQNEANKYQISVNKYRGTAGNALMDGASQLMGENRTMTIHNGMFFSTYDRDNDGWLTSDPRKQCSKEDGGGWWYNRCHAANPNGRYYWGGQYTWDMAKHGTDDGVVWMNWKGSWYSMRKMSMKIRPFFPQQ
T1 sequence (P02679 27-433 limits assumed): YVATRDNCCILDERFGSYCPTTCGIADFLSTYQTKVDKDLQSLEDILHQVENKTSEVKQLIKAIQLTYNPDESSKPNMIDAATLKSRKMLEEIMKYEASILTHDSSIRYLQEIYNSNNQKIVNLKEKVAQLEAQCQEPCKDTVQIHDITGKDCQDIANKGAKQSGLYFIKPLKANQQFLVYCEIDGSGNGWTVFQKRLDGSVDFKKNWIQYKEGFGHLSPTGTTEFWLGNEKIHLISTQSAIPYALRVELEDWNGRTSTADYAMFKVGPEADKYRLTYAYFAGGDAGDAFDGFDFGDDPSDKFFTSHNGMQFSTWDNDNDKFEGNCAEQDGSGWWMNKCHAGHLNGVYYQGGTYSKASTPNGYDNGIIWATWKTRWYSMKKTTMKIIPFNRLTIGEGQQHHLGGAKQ

[2] = biological target: T2, fibrin (Homo sapiens, UniProt P02671+P02675+P02679); experiment: Solvent water 1H relaxation rate; format: physicochemical; conditions: 30 μM fibrin, 0.47T, 37°C
T2 sequence (P02671 36-866 limits assumed): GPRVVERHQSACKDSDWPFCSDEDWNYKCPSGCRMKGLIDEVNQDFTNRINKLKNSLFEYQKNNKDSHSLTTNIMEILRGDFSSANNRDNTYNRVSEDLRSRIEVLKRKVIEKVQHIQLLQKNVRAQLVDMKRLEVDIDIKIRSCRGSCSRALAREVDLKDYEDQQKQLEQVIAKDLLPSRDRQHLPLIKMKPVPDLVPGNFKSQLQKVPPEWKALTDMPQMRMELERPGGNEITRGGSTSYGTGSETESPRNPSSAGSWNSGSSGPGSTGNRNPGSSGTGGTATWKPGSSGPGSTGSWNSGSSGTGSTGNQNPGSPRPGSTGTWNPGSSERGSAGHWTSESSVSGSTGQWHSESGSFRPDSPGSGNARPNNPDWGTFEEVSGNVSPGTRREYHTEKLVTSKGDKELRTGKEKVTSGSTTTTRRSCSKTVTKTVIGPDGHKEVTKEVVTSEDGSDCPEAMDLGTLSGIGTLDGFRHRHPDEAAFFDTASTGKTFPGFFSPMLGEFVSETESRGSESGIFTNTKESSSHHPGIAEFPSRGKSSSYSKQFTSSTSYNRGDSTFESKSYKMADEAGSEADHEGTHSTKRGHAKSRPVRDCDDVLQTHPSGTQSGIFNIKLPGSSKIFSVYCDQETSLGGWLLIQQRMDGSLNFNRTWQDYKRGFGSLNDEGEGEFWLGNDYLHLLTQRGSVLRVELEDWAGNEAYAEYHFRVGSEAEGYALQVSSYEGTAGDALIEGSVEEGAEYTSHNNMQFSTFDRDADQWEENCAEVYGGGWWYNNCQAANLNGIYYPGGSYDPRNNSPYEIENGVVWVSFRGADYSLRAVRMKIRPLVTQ
T2 sequence (P02675 45-491 limits assumed): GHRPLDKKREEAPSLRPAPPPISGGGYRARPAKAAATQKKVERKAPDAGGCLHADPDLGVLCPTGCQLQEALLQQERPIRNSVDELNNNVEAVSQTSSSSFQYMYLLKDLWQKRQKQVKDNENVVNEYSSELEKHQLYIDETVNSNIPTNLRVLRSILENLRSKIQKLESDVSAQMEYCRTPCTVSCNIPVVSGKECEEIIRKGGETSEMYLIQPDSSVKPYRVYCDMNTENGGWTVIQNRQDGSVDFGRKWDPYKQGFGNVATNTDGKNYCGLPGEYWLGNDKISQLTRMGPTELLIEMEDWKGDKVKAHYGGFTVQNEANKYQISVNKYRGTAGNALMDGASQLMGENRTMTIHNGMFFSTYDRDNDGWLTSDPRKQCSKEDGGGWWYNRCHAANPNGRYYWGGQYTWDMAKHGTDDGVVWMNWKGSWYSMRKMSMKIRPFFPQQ
T2 sequence (P02679 27-433 limits assumed): T1 sequence (P02679 27-433 limits assumed)

[3] = biological target: T2, fibrin; conditions: ref [15]; cited from earlier work

Molecule: CC[C@H](C)[C@H](NC(=O)[C@H](Cc1c[nH]c2ccccc12)NC(=O)[C@@H]1CSSC[C@H](NC(=O)[C@H](CCC(=O)O)NC(=O)[C@H](Cc2c[nH]c3ccccc23)NC(=O)[C@H](CCC(N)=O)NC(=O)CCCCCNC(=O)c2ccc3c(c2)C(=O)OC32c3ccc(O)cc3Oc3cc(O)ccc32)C(=O)N2CCC[C@H]2C(=O)N[C@@H](Cc2ccc(O)cc2)C(=O)NCC(=O)N[C@@H](CC(C)C)C(=O)N1)C(=O)N[C@@H](CCC(N)=O)C(N)=O [Tn6-2b-Fl, Fluor-Aca-QWECPYGLCWIQ] ({5FAM-Ahx}-QWECPYGLCWIQ-NH2; disulfide 4-9)
fibrinogen binding weaker than to DD(E) [1]: 400 fold

enhancement of 1/T1 in fibrin gel compared to buffer [2]: no enhancement of 1/T1
Molecule: O=C([O-])CN(CCN(CC(=O)[O-])CC(=O)O)CCN(CC(=O)[O-])CC(=O)O.[Gd+3] [GdDTPA, diethylenetriaminepentaaceto gadolinium(III), reference compound]

Molecule: DTPA-GYLCGDYTLCPD-NH2 ({DTPA}-GYLCGDYTLCPD-NH2; not fully specified (bridges); cysteine pairing not given here)
fibrin binding (in words) [3]: No measurable fibrin binding
